Reference: patent EP4813979A1, “COMPOUND FOR EGFR PROTEIN DEGRADATION AND USE THEREOF” (TYK Medicines, Inc., priority 2023, dated 2025)

How the values were obtained:
A549 = assay: Cell anti-proliferation experiment (CTG); type: cell-based; settings: Homo sapiens, A549, 72 h, A549 (wild-type EGFR)
Text: (§1) H1975 has an EGFR: T790M/L858R double mutation, PC-9 has an EGFR exon 19 deletion, and HCC827 has an exon 19 deletion mutation. Baf3-19del- T790M -C797S (Baf3-DTC) is a stable Ba/F3 clone expressing exogenous EGFR gene bearing T790M, C797S, and […] triple amino acid mutations, purchased from KYinno. Baf3-L858R-T790M - C797S (Baf3-LTC) is a stable Ba/F3 clone expressing exogenous EGFR gene bearing […], T790M, and C797S triple mutations, purchased from KYinno. A549 is a wild-type EGFR, purchased from Nanjing Kebai Biotechnology. A431 is a wild-type EGFR, purchased from Shanghai Xinyu Biotechnology. CellCounting-Lite2.0, Trypsin EDTA, 37°C CO2 incubator, cell counter, EnVision Serial No. 1050454.
(§2) • A) Digested logarithmic phase cells with Trypsin EDTA, added culture medium to stop the reaction, and mixing well with a pipette to prepare a cell suspension. • B) Used Vi-cell to determine cell concentration, and prepared a suspension of 15,000-25,000 cells per milliliter according to the experimental purpose and cell characteristics. • C) After prepared the cell suspension, mixed it gently and added 100 µL to each well, so that the cell density to be tested is 1500-2500 per well.
(§3) • A) Weighed approximately 2 mg the compound and calculated the required volume of DMSO according to the formula: Compound mass (mg) * Compound purity (%) / Compound molecular weight * 1000. • B) Placed the inoculated cell culture plate into an incubator and incubated for about 24 hours. Then added compounds of varying concentrations. • C) Diluted the 10mM compound stock solution to […] with culture medium, and added the […] compound solution to the second column of the deep well plate in sequence, and added […] culture medium containing 0.5% DMSO to the third to eleventh columns. • D) Gradient dilution: Taked 125 µL solution from the second column and added it to the third column, mix well; then taked 125 µL solution from the third column and added it to the fourth column, repeated this operation until the tenth column. • E) Used a multichannel pipette, aspirated 25 µL the compound from the deep-well plate and added it to a 96-well culture plate. Repeated this process three times for each compound on the 96-well plate. This will ultimately create a concentration gradient of up to 10,000 nM at a 1:4 ratio on the 96-well plate.
(§4) • A) The effects of the compound were observed under an inverted microscope after the 96-well plate was incubated in an incubator for 72 hours. • B) Added 25 µL CTG solution to each well, placed on a shaker for 10 minutes, and read the […] of each well.
(§5) Calculate the % Cell Viability using the following formula: %Cell Viability = 100% × (Lum_Sample−Lum_LC)/(Lum_HC−Lum_LC) [formula] • Lum_HC: Cell readings from the 0.1% DMSO control group • Lum_Sample: Cell readings with added compound • Lum_LC: Blank culture medium reading
(§6) The IC50 value was obtained by curve fitting using GraphPad Prism 8 software.

H1975 = assay: Cell anti-proliferation experiment (CTG); type: cell-based; settings: Homo sapiens, NCI-H1975, 72 h, H1975 (EGFR T790M/L858R)
Text: as §1, §2, §3, §4, §5, §6

HCC827 = assay: Cell anti-proliferation experiment (CTG); type: cell-based; settings: Homo sapiens, HCC827, 72 h, HCC827 (exon 19 deletion)
Text: as §1, §2, §3, §4, §5, §6

PC-9 = assay: Cell anti-proliferation experiment (CTG); type: cell-based; settings: Homo sapiens, PC-9, 72 h, PC-9 (EGFR exon 19 deletion)
Text: as §1, §2, §3, §4, §5, §6

A431 = assay: Cell anti-proliferation experiment (CTG); type: cell-based; settings: Homo sapiens, A-431, 72 h, A431 (wild-type EGFR), class symbol
Text: as §1, §2, §3, §4, §5, §6

[1] = system: Baf3-19del- T790M -C797S (Baf3-DTC); assay: Cell anti-proliferation experiment (CTG); type: cell-based; settings: 72 h, class symbol
Text: as §1, §2, §3, §4, §5, §6

[2] = system: Baf3-L858R-T790M - C797S (Baf3-LTC); assay: Cell anti-proliferation experiment (CTG); type: cell-based; settings: 72 h, class symbol
Text: as §1, §2, §3, §4, §5, §6

[3] = Pharmacokinetic tests in male SD rats; type: in vivo; settings: oral gavage (po), 10 mg/kg, plasma
Procedure: Three healthy adult male SD rats, 6-8 weeks old, weighing 200-300 grams.
EDTA-Na2 anticoagulant, weighed 11.2 g EDTA-Na2 and placed it in a reagent bottle. Added 100 mL physiological saline and shaked to dissolve completely. After preparation, dispensed into 1.5 mL centrifuge tubes, each containing approximately 20 µL, for whole blood sample collection.
Accurately weighed approximately 10 mg the sample to be tested, added 10% of the converted total volume of DMSO to dissolve it, and then slowly added 90% of the total volume of 0.5% MC solvent while stirring. Sonicated and vortex to mix thoroughly to obtain a solution of the preparation that is considered to be homogeneous, with a concentration of 1 mg/mL. Prepared fresh immediately before use.
Piped 0.2 mL the sample into a 1.5 mL centrifuge tube and store at -80°C for analysis of the concentration of the drug solution.
Animals were housed in rat cages and fasted for at least 10 hours starting the day before the experiment, but water was allowed. On the day of the experiment, each animal was weighed and marked on its tail. Blank blood samples were collected before drug administration. Blood was collected via tail vein.
• Route of administration: Oral gavage (po); • Dosage concentration: 1 mg/ml; • Dosage: 10 mg/kg; • Dosage volume: 10 mL/kg; • Procedure: Hold the rat upright with your left hand wearing a bite-proof glove, insert the gavage needle into the throat through the mouth, and insert the needle when feeling no obvious resistance. Then inject the drug into the stomach.
Whole blood (0.1-0.2 ml) was collected from test animals at 0.5 h, 1 h, 2 h, 4 h, 6 h, 8 h, 12 h, and 24 h after drug administration. The samples were placed in EDTA-Na 2 anticoagulant tubes, inverted 3-4 times to mix, and centrifuged at 4°C, 2000 g for 5 min to separate the supernatant plasma. The plasma was promptly transferred to -80°C for storage until analysis. Blood was collected via tail vein.
A quantitative detection method for the analyte was established using Shimadzu liquid chromatography and Triple Quad™ 6500+AB mass spectrometry. The concentration of the parent drug in plasma was analyzed. The analytical results were controlled for variation using quality control samples, with the accuracy of the quality control samples expected to be between 80% and 120%.
The main pharmacokinetic parameters were calculated using a non-compartmental model in Winnonlin Phoenix software. These parameters included the area under the curve (AUC(0-t) and AUC(0-∞)), elimination half-life (T1/2), maximum plasma concentration (Cmax ), and time to reach maximum plasma concentration (Tmax).The results are shown in Table 3.

Row | Compound | IC50 (A549; class symbol) [nM] | IC50 (A549; number after the class symbol) [nM] | IC50 (H1975; class symbol) [nM] | IC50 (H1975; number after the class symbol) [nM] | IC50 (HCC827; class symbol) [nM] | IC50 (HCC827; number after the class symbol) [nM] | IC50 (PC-9; class symbol) [nM] | IC50 (PC-9; number after the class symbol) [nM] | IC50 (A431) [nM] | IC50 [1] [nM] | IC50 [2] [nM] | HL [3] [h] | AUC(0-inf) ([3]; rat) [ng·h/mL] | AUC(0-t) ([3]; rat) [ng·h/mL] | Cmax ([3]; rat) [ng/mL] | MRT last ([3]; rat) [h] | Tmax ([3]; rat) [h]
1 | COc1cc(N2CCN(C(=O)CN3CCC(c4ccc5c(N6CCC(=O)NC6=O)nn(C)c5c4)CC3)CC2)ccc1Nc1ncc(Cl)c(Nc2ccccc2)n1 [DZL-2, reference compound] | 100 to 1000 | 289 | 100 to 1000 | 220 | 100 to 1000 | 265 | 100 to 1000 | 612 | – | – | – | – | – | – | – | – | –
2 | CCc1cc(Nc2ncc(Cl)c(Nc3ccccc3C(=O)NC)n2)c(OC)cc1N1CC2(CN(C(=O)CN3CCC(c4cc5c(cc4F)c(N4CCC(=O)NC4=O)nn5C)C(F)(F)C3)C2)C1 (stereo not shown) [TA-019] | > 1000 | – | < 10 | – | > 1000 | – | 100 to 1000 | – | > 1000 | 10 to 100 | 10 to 100 | – | – | – | – | – | –
3 | CCc1cc(Nc2ncc(Cl)c(Nc3ccccc3P3(=O)CCCC3)n2)c(OC)cc1N1CC2(CCN(C(=O)CN3CCC(c4cc5c(cc4F)c(N4CCC(=O)NC4=O)nn5C)C(F)(F)C3)CC2)C1 (stereo not shown) [TB-005] | > 1000 | – | 10 to 100 | – | 100 to 1000 | – | > 1000 | – | > 1000 | 10 to 100 | 10 to 100 | – | – | – | – | – | –
4 | CCc1cc(Nc2ncc(Br)c(Nc3ccccc3P3(=O)CCCC3)n2)c(OC)cc1N1CC2(CCN(C(=O)CN3CCC(c4cc5c(cc4F)c(N4CCC(=O)NC4=O)nn5C)CC3)CC2)C1 [TB-008] | 100 to 1000 | – | 10 to 100 | – | 10 to 100 | – | 100 to 1000 | – | 100 to 1000 | 10 to 100 | 10 to 100 | – | – | – | – | – | –
5 | CCc1cc(Nc2ncc(Cl)c(Nc3ccccc3P(C)(C)=O)n2)c(OC)cc1N1CCC(N(C)C(=O)CN2CCC(c3cc4c(cc3F)c(N3CCC(=O)NC3=O)nn4C)C(F)(F)C2)CC1 (stereo not shown) [TC-089] | > 1000 | – | 10 to 100 | – | 100 to 1000 | – | 100 to 1000 | – | > 1000 | 10 to 100 | 10 to 100 | – | – | – | – | – | –
6 | CCc1cc(Nc2ncc(Cl)c(Nc3ccccc3P(C)(C)=O)n2)c(OC)cc1N1CCN(CCN2CCC(c3cc4c(cc3F)c(N3CCC(=O)NC3=O)nn4C)C(F)(F)C2)CC1 (stereo not shown) [TC-099] | – | – | – | – | – | – | – | – | – | – | – | 7.86 | 9130 | 7840 | 649 | 7.79 | 2.67
7 | CCc1cc(Nc2ncc(Cl)c(Nc3ccccc3P(C)(C)=O)n2)c(OC)cc1N1CC2(CCN(C(=O)CN3CCC(c4cc5c(cc4F)c(N4CCC(=O)NC4=O)nn5C)C(F)(F)C3)C2)C1 (stereo not shown) [TC-105] | 100 to 1000 | – | 100 to 1000 | – | 10 to 100 | – | 100 to 1000 | – | 100 to 1000 | 10 to 100 | 10 to 100 | – | – | – | – | – | –
